Measured values: US11584714B2 (priority 2018, dated 2023)
Counter-ions that a name gives are not always drawn. Like-named read-outs stand apart in the source and are kept apart here.

How the values were obtained:
Assay type in all cases: biochemical
[1] = biological target: MASP-2 (CCP1-CCP2-SP) (Homo sapiens (Human), UniProt O00187); assay: biochemical; conditions: for MASP-2 vs. thrombin selectivity: selectivity for MASP-2 inhibition versus thrombin
[2] = biological target: human α-thrombin (Homo sapiens (Human), UniProt P00734); assay: Enzymatic assay for thrombin (Boc-VPR-AMC substrate)
[3] = biological target: mMASP-2 (Mus musculus (Mouse), UniProt Q91WP0); assay: Enzymatic inhibition of mMASP-2; conditions: read-out: mMASP-2 Ki
mMASP-2, sequence (Q91WP0 20-685): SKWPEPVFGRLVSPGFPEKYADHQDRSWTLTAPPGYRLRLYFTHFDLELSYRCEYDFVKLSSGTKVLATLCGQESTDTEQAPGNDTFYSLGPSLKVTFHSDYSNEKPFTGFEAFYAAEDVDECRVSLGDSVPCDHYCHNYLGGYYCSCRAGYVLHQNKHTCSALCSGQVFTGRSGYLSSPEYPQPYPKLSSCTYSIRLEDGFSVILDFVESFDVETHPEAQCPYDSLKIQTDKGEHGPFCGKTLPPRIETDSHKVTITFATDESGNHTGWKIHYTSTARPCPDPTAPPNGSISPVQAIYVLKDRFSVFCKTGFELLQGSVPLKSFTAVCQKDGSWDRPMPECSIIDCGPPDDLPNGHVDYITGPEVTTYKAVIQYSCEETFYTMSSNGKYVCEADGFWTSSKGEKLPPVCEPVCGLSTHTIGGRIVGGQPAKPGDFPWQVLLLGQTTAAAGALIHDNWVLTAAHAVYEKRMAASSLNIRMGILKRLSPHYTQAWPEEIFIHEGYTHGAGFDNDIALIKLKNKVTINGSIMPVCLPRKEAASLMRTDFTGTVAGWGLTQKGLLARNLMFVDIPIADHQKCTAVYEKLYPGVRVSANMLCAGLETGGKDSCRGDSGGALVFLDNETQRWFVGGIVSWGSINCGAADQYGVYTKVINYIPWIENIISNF

MASP-2 (CCP1-CCP2-SP), sequence (O00187 445-686): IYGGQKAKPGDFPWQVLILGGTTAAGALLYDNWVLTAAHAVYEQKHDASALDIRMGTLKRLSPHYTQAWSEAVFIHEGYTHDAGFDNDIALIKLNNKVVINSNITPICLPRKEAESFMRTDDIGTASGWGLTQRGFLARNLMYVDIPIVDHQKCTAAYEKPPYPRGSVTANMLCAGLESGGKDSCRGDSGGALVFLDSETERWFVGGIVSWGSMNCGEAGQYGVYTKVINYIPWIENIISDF

SMILES: Cc1nc(N)ccc1CNC(=O)[C@H](C)NC(=O)[C@H]1C[C@H](Cc2cc(Br)no2)CN1 [compound 1421, (2R,4R)—N—((S)-1-(((6-Amino-2-methylpyridin-3-yl)methyl)amino)-1-oxopropan-2-yl)-4-((3-bromoisoxazol-5-yl)methyl)pyrrolidine-2-carboxamide Di-trifluoroacetate salt]
- Ki ([1]; read-out: MASP-2 Ki): < 0.5 µM
- MASP-2 vs. thrombin selectivity [1]: **** (≥100-fold)
- Ki ([2]; Thrombin Ki (μM)): 10 to 25 µM
- Ki [3]: 0.5 to 2.5 µM

SMILES: Cc1nc(N)ccc1CNC(=O)[C@H](C)NC(=O)[C@H]1C[C@H](Cc2cc(C(F)(F)F)cc(C(F)(F)F)c2)CN1 [compound 1424, (2R,4S)—N—((S)-1-(((6-Amino-2-methylpyridin-3-yl)methyl)amino)-1-oxopropan-2-yl)-4-(3,5-bis(trifluoromethyl)benzyl)pyrrolidine-2-carboxamide Di-trifluoroacetate salt]
- Ki [1]: 0.5 to 2.5 µM
- Ki ([2]; read-out: Thrombin Ki): < 0.5 µM
- Ki [3]: 0.5 to 2.5 µM

SMILES: C[C@H](NC(=O)[C@H]1C[C@H](c2ccccc2)CN1)C(=O)NCc1ccc2c(N)n[nH]c2c1 [compound 1425, (2R,4R)—N—((S)-1-(((3-Amino-1H-indazol-6-yl)methyl)amino)-1-oxopropan-2-yl)-4-phenylpyrrolidine-2-carboxamide Trifluoroacetate salt]
- Ki [1]: 2.5 to 10 µM
- Ki ([2]; read-out: Thrombin Ki): > 25 µM
- Ki [3]: 0.5 to 2.5 µM

SMILES: C[C@H](NC(=O)[C@H]1C[C@@H](c2ccccc2)CCN1)C(=O)NCc1cc(Cl)ccc1-n1cnnn1 [compound 1426, (2R,4S)—N—((S)-1-((5-Chloro-2-(1H-tetrazol-1-yl)benzyl)amino)-1-oxopropan-2-yl)-4-phenylpiperidine-2-carboxamide Trifluoroacetate]
- Ki ([1]; read-out: MASP-2 Ki): < 0.5 µM
- MASP-2 vs. thrombin selectivity [1]: *** (≥25 to <100-fold)
- Ki ([2]; Thrombin Ki (μM)): 0.5 to 2.5 µM
- Ki [3]: 0.5 to 2.5 µM

SMILES: Cc1nc(N)ccc1CNC(=O)[C@H](C)NC(=O)[C@H]1C[C@H](Cc2ccc(Cc3ccccc3)cc2)CN1 [compound 1427, (2R,4S)—N—((S)-1-(((6-Amino-2-methylpyridin-3-yl)methyl)amino)-1-oxopropan-2-yl)-4-(4-benzylbenzyl)pyrrolidine-2-carboxamide di-trifluoroacetate salt]
- Ki ([1]; read-out: MASP-2 Ki): < 0.5 µM
- MASP-2 vs. thrombin selectivity [1]: **** (≥100-fold)
- Ki ([2]; read-out: Thrombin Ki): > 25 µM
- Ki [3]: < 0.5 µM

SMILES: C[C@H](NC(=O)[C@H]1C[C@H](c2ccccc2)CN1)C(=O)NCc1ccc2nccn2c1 [compound 1434, (2R,4R)—N—((S)-1-((Imidazo[1,2-a]pyridin-6-ylmethyl)amino)-1-oxopropan-2-yl)-4-phenylpyrrolidine-2-carboxamide Dihydrochloride]
- Ki [1]: 10 to 25 µM
- Ki ([2]; read-out: Thrombin Ki): > 25 µM
- Ki [3]: 10 to 25 µM

SMILES: Cc1cc(Br)cc(CNC(=O)[C@H](C)NC(=O)[C@H]2C[C@H](Cc3ccccc3)CN2)c1-n1cnnn1 [compound 1436, (2R,4S)-4-Benzyl-N-((S)-1-((5-bromo-3-methyl-2-(1H-tetrazol-1-yl)benzyl)amino)-1-oxopropan-2-yl)pyrrolidine-2-carboxamide Trifluoroacetate]
- Ki [1]: 0.5 to 2.5 µM
- MASP-2 vs. thrombin selectivity [1]: ** (≥5.0 to <25-fold)
- Ki ([2]; Thrombin Ki (μM)): 10 to 25 µM
- Ki [3]: > 25 µM

SMILES: Cc1nc(N)ccc1CNC(=O)[C@H](C)NC(=O)[C@H]1C[C@@H](c2ccccc2)CCN1CCCC(=O)O [compound 1439, 4-((2R,4S)-2-(((S)-1-(((6-Amino-2-methylpyridin-3-yl)methyl)amino)-1-oxopropan-2-yl)carbamoyl)-4-phenylpiperidin-1-yl)butanoic acid Trifluoroacetate salt]
- Ki ([1]; read-out: MASP-2 Ki): < 0.5 µM
- Ki ([2]; read-out: Thrombin Ki): > 25 µM
- Ki [3]: 2.5 to 10 µM

SMILES: CCOC(=O)CCCN1CC[C@H](c2ccccc2)C[C@@H]1C(=O)N[C@@H](C)C(=O)NCc1ccc(N)nc1C [compound 1440, Ethyl 4-((2R,4S)-2-(((S)-1-(((6-amino-2-methylpyridin-3-yl)methyl)amino)-1-oxopropan-2-yl)carbamoyl)-4-phenylpiperidin-1-yl)butanoate]
- Ki ([1]; read-out: MASP-2 Ki): < 0.5 µM
- Ki ([2]; read-out: Thrombin Ki): > 25 µM
- Ki [3]: 2.5 to 10 µM

SMILES: C[C@H](NC(=O)[C@H]1C[C@H](c2ccccc2)CN1)C(=O)NCc1cnc2c(c1)c(Cl)cn2C [compound 1442, (2R,4R)—N—((S)-1-(((3-Chloro-1-methyl-1H-pyrrolo[2,3-b]pyridin-5-yl)methyl)amino)-1-oxopropan-2-yl)-4-phenylpyrrolidine-2-carboxamide Dihydrochloride]
- Ki ([1]; read-out: MASP-2 Ki): < 0.5 µM
- Ki ([2]; read-out: Thrombin Ki): > 25 µM
- Ki [3]: < 0.5 µM

SMILES: C[C@H](NC(=O)[C@H]1C[C@H](Cc2ccccc2)CN1)C(=O)NCc1cc(Cl)cc(Cl)c1O [compound 1448, (2R,4S)-4-benzyl-N-((S)-1-((3,5-dichloro-2-hydroxybenzyl)amino)-1-oxopropan-2-yl)pyrrolidine-2-carboxamide, hydrochloride]
- Ki ([1]; read-out: MASP-2 Ki): < 0.5 µM
- MASP-2 vs. thrombin selectivity [1]: **** (≥100-fold)
- Ki ([2]; read-out: Thrombin Ki): > 25 µM
- Ki [3]: 2.5 to 10 µM

SMILES: Cc1nc(N)ccc1CNC(=O)[C@H](C)NC(=O)[C@H]1C[C@H](Cc2ccc(OC(F)(F)F)c(Cl)c2)CN1 [compound 1455, (2R,4S)—N—((S)-1-(((6-Amino-2-methylpyridin-3-yl)methyl)amino)-1-oxopropan-2-yl)-4-(3-chloro-4-(trifluoromethoxy)benzyl)pyrrolidine-2-carboxamide Di-trifluoroacetate salt]
- Ki ([1]; read-out: MASP-2 Ki): < 0.5 µM
- MASP-2 vs. thrombin selectivity [1]: **** (≥100-fold)
- Ki ([2]; read-out: Thrombin Ki): > 25 µM
- Ki [3]: < 0.5 µM

SMILES: C[C@H](NC(=O)[C@H]1C[C@H](c2ccccc2)CN1)C(=O)NCc1cnc2cccc(Cl)c2c1 [compound 1457, (2R,4R)—N—((S)-1-(((5-chloroquinolin-3-yl)methyl)amino)-1-oxopropan-2-yl)-4-phenylpyrrolidine-2-carboxamide]
- Ki [1]: 10 to 25 µM
- Ki ([2]; read-out: Thrombin Ki): > 25 µM
- Ki [3]: 2.5 to 10 µM

SMILES: Cc1nc(N)ccc1CNC(=O)[C@H](C)NC(=O)[C@H]1C[C@H](Cc2cc3ccccc3s2)CN1 [compound 1458, (2R,4R)—N—((S)-1-(((6-Amino-2-methylpyridin-3-yl)methyl)amino)-1-oxopropan-2-yl)-4-(benzo[b]thiophen-2-ylmethyl)pyrrolidine-2-carboxamide Di-trifluoroacetate salt]
- Ki ([1]; read-out: MASP-2 Ki): < 0.5 µM
- MASP-2 vs. thrombin selectivity [1]: **** (≥100-fold)
- Ki ([2]; read-out: Thrombin Ki): > 25 µM
- Ki [3]: < 0.5 µM

SMILES: Cc1nc(N)ccc1CNC(=O)[C@H](C)NC(=O)[C@H]1C[C@H](Cc2ccc(F)c(Cl)c2)CN1 [compound 1459, (2R,4S)—N—((S)-1-(((6-Amino-2-methylpyridin-3-yl)methyl)amino)-1-oxopropan-2-yl)-4-(3-chloro-4-fluorobenzyl)pyrrolidine-2-carboxamide Di-trifluoroacetate salt]
- Ki ([1]; read-out: MASP-2 Ki): < 0.5 µM
- MASP-2 vs. thrombin selectivity [1]: **** (≥100-fold)
- Ki ([2]; Thrombin Ki (μM)): 2.5 to 10 µM
- Ki [3]: < 0.5 µM

SMILES: Cc1nc(N)ccc1CNC(=O)[C@H](C)NC(=O)[C@H]1C[C@H](Cc2nc3cc(Cl)ccc3s2)CN1 [compound 1460, (2R,4R)—N—((S)-1-(((6-Amino-2-methylpyridin-3-yl)methyl)amino)-1-oxopropan-2-yl)-4-((5-chlorobenzo[d]thiazol-2-yl)methyl)pyrrolidine-2-carboxamide Di-trifluoroacetate salt]
- Ki ([1]; read-out: MASP-2 Ki): < 0.5 µM
- MASP-2 vs. thrombin selectivity [1]: **** (≥100-fold)
- Ki ([2]; read-out: Thrombin Ki): > 25 µM
- Ki [3]: < 0.5 µM

SMILES: Cc1nc(N)ccc1CNC(=O)[C@H](C)NC(=O)[C@H]1C[C@H](Cc2csc(Cl)c2)CN1 [compound 1461, (2R,4S)—N—((S)-1-(((6-Amino-2-methylpyridin-3-yl)methyl)amino)-1-oxopropan-2-yl)-4-((5-chlorothiophen-3-yl)methyl)pyrrolidine-2-carboxamide Dihydrochloride]
- Ki ([1]; read-out: MASP-2 Ki): < 0.5 µM
- MASP-2 vs. thrombin selectivity [1]: **** (≥100-fold)
- Ki ([2]; Thrombin Ki (μM)): 0.5 to 2.5 µM
- Ki [3]: < 0.5 µM

SMILES: C[C@H](NC(=O)[C@H]1C[C@H](c2ccccc2)CN1)C(=O)NCc1cc(Br)cc2cn[nH]c12 [compound 1462, (2R,4R)—N—((S)-1-(((5-bromo-1H-indazol-7-yl)methyl)amino)-1-oxopropan-2-yl)-4-phenylpyrrolidine-2-carboxamide]
- Ki [1]: 0.5 to 2.5 µM
- MASP-2 vs. thrombin selectivity [1]: ** (≥5.0 to <25-fold)
- Ki ([2]; Thrombin Ki (μM)): 10 to 25 µM
- Ki [3]: 2.5 to 10 µM

SMILES: C[C@H](NC(=O)[C@H]1C[C@H](c2ccccc2)CN1)C(=O)NCc1cc2cnccc2[nH]1 [compound 1463, (2R,4R)—N—((S)-1-(((1H-Pyrrolo[3,2-c]pyridin-2-yl)methyl)amino)-1-oxopropan-2-yl)-4-phenylpyrrolidine-2-carboxamide Di-trifluoroacetate salt]
- Ki ([1]; read-out: MASP-2 Ki): < 0.5 µM
- Ki ([2]; read-out: Thrombin Ki): > 25 µM
- Ki [3]: < 0.5 µM

SMILES: CCN1C[C@@H](Cc2ccc(Cl)c(Br)c2)C[C@@H]1C(=O)N[C@@H](C)C(=O)NCc1ccc(N)nc1C [compound 1464, (2R,4S)—N—((S)-1-(((6-Amino-2-methylpyridin-3-yl)methyl)amino)-1-oxopropan-2-yl)-4-(3-bromo-4-chlorobenzyl)-1-ethylpyrrolidine-2-carboxamide]
- Ki ([1]; read-out: MASP-2 Ki): < 0.5 µM
- Ki ([2]; read-out: Thrombin Ki): > 25 µM
- Ki [3]: < 0.5 µM

SMILES: Cc1nc(N)ccc1CNC(=O)[C@@H]1CCCN1C(=O)[C@H]1C[C@H](Cc2ccc(Br)cc2)CN1 [compound 1465, (S)—N-((6-Amino-2-methylpyridin-3-yl)methyl)-1-((2R,4S)-4-(4-bromobenzyl)pyrrolidine-2-carbonyl)pyrrolidine-2-carboxamide Di-trifluoroacetate salt]
- Ki ([1]; read-out: MASP-2 Ki): < 0.5 µM
- MASP-2 vs. thrombin selectivity [1]: * (≥1.0 to <5.0-fold)
- Ki ([2]; read-out: Thrombin Ki): < 0.5 µM
- Ki [3]: 0.5 to 2.5 µM

SMILES: Cc1nc(N)ccc1CNC(=O)[C@H](C)NC(=O)[C@H]1C[C@H](Cc2ccc(Br)c(Cl)c2)CN1 [compound 1466, (2R,4S)—N—((S)-1-(((6-Amino-2-methylpyridin-3-yl)methyl)amino)-1-oxopropan-2-yl)-4-(4-bromo-3-chlorobenzyl)pyrrolidine-2-carboxamide Di-trifluoroacetate salt]
- Ki ([1]; read-out: MASP-2 Ki): < 0.5 µM
- MASP-2 vs. thrombin selectivity [1]: **** (≥100-fold)
- Ki ([2]; Thrombin Ki (μM)): 10 to 25 µM
- Ki [3]: < 0.5 µM
